Test results: patent publication US9969742B2, “Imidazotriazinone compounds” (Ironwood Pharmaceuticals, Inc., priority 2012, dated 2018)
Where two headings read alike, the source gives them in different places. One block for each compound: values may come before it.

Columns and labels:
Type in all cases: biochemical
PDE9A2 = target: T1, PDE9A2 (Homo sapiens, UniProt O76083); assay: Phosphodiesterase enzyme screening assay, PDE9A2
T1 construct: purchased Reaction Biology Corporation, Malvern, Pa
Method in brief: (§1)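 Recombinant enzymes were run in 100 mM HEPES pH 7.5, 5 mM MgCl2, 1 mM DTT, 0.003% Brij with 4.0 μM cGMP substrate, started with cGMP or cAMP, 1 h at RT, and stopped with EDTA. Fluorescent substrate and product were separated by microfluidic mobility shift.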

PDE1A = target: T2, PDE1A (Homo sapiens, UniProt P54750); assay: Phosphodiesterase enzyme screening assay, PDE1A
T2 construct: purchased Reaction Biology Corporation, Malvern, Pa
T2 sequence (P54750 whole entry): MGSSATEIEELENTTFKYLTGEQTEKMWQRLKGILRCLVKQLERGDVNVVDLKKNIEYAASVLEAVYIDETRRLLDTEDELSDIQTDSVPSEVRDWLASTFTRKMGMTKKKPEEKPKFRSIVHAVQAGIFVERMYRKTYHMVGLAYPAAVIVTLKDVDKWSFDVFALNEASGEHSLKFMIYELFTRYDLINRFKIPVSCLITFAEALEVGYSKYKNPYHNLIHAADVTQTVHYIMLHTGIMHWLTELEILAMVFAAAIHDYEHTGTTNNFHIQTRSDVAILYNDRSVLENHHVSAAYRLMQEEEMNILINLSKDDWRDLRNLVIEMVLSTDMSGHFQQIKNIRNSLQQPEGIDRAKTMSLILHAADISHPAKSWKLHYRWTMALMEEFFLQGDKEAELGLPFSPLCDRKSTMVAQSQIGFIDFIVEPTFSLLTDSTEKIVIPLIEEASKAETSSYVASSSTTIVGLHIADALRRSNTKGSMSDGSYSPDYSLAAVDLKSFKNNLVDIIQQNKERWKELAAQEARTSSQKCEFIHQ
Method in brief: as §1

PDE1B = target: T3, PDE1B (Homo sapiens, UniProt Q01064); assay: Phosphodiesterase enzyme screening assay, PDE1B
T3 construct: purchased Reaction Biology Corporation, Malvern, Pa
T3 sequence (Q01064 whole entry): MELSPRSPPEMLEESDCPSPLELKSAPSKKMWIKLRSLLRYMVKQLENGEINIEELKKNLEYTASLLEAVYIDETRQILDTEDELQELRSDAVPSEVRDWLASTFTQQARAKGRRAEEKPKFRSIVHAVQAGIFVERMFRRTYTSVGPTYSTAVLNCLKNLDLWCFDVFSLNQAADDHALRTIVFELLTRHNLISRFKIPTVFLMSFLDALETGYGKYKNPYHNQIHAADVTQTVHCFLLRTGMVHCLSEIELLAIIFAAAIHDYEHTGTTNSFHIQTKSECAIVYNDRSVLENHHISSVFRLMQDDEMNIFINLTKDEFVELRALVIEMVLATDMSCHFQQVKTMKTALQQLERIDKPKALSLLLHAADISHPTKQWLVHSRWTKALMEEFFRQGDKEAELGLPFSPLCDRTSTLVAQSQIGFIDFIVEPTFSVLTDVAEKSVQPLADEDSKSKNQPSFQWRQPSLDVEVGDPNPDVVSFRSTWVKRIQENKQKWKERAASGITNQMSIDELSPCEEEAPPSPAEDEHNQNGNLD
Method in brief: as §1

[1] = ratio of IC50 values, PDE1A versus PDE9A2, value greater than 1 indicates greater selectivity for PDE9A2
[2] = ratio of IC50 values, PDE1B versus PDE9A2, value greater than 1 indicates greater selectivity for PDE9A2
[3] = Table 1, 10 concentrations, 4.0 μM cGMP substrate, 1 hour at R.T., read-out: Band (PDE9A2 IC50)
[4] = Table 1, ratio of IC50 values, value greater than 1 indicates greater selectivity for PDE9A2
[5] = 4.0 μM cGMP substrate, 1 hour at R.T., read-out: Band (PDE9A2 IC50)
[6] = ratio of IC50 values PDE1A / PDE9A2, value greater than 1 = greater selectivity for PDE9A2
[7] = ratio of IC50 values PDE1B / PDE9A2, value greater than 1 = greater selectivity for PDE9A2
[8] = ratio of IC50 values, value greater than 1 indicates greater selectivity for PDE9A2
[9] = IC50 band, 4.0 μM cGMP substrate, 1 hour at R.T.
[10] = ratio of IC50 values PDE1A vs PDE9A2, value greater than 1 indicates greater selectivity for PDE9A2
[11] = ratio of IC50 values PDE1B vs PDE9A2, value greater than 1 indicates greater selectivity for PDE9A2
[12] = Table 2, 10 concentrations, 4.0 μM cGMP substrate, 1 hour at R.T., read-out: Band (PDE9A2 IC50)
[13] = Table 2, ratio of IC50 values, value greater than 1 indicates greater selectivity for PDE9A2

T1 sequence (O76083 1-533 isoform O76083-2): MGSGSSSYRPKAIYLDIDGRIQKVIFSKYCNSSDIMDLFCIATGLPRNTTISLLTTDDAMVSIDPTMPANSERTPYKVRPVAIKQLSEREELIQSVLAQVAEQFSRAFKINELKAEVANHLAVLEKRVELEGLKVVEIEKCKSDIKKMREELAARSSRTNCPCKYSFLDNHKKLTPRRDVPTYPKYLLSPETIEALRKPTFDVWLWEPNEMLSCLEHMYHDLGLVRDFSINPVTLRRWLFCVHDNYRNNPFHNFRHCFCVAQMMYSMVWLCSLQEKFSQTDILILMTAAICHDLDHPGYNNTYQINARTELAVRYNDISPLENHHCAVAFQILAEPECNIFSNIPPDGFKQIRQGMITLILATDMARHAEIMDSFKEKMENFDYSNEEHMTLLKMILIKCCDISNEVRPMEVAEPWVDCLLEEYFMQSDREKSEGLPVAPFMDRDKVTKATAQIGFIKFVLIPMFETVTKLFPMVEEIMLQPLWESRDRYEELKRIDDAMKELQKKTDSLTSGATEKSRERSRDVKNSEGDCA

SMILES: CC1CN(Cc2ccc(F)cc2)CC1c1nn2c(-c3cccc(F)c3)ncc2c(=O)[nH]1 (single isomer, unassigned; (+)) [(+)-2-((3,4-trans)-1-(4-fluorobenzyl)-4-methylpyrrolidin-3-yl)-7-(3-fluorophenyl)imidazo[5,1-f][1,2,4]triazin-4(3H)-one]
- IC50 (PDE9A2; read-out: Band (PDE9A2 IC50)): < 1 µM
- PDE1A selectivity (versus PDE9A2) (PDE1A; [1]): 42
- PDE1B selectivity (versus PDE9A2) (PDE1B; [2]): 57

SMILES: Cc1ccccc1-c1ncc2c(=O)[nH]c(C3CN(Cc4ccc(F)cc4)CC3C)nn12 (single isomer, unassigned; (+)) [(+)-2-((3,4-trans)-1-(4-fluorobenzyl)-4-methylpyrrolidin-3-yl)-7-(o-tolyl)imidazo[5,1-f][1,2,4]triazin-4(3H)-one]
- IC50 (PDE9A2; read-out: Band (PDE9A2 IC50)): < 1 µM
- PDE1A selectivity (versus PDE9A2) (PDE1A; [1]): 963
- PDE1B selectivity (versus PDE9A2) (PDE1B; [2]): 744

SMILES: CCC(CC)c1ncc2c(=O)[nH]c(C3CN(Cc4ccc(F)cc4)CC3C)nn12 (single isomer, unassigned; (+)) [(+)-2-((3,4-trans)-1-(4-fluorobenzyl)-4-methylpyrrolidin-3-yl)-7-(pentan-3-yl)imidazo[5,1-f][1,2,4]triazin-4(3H)-one]
- IC50 (PDE9A2; read-out: Band (PDE9A2 IC50)): < 1 µM
- PDE1A selectivity (versus PDE9A2) (PDE1A; [1]): 70
- PDE1B selectivity (versus PDE9A2) (PDE1B; [2]): 27

SMILES: CC1CN(Cc2ccc(F)cc2)CC1c1nn2c(C3CCOCC3)ncc2c(=O)[nH]1 (single isomer, unassigned; (+)) [(+)-2-((3,4-trans)-1-(4-fluorobenzyl)-4-methylpyrrolidin-3-yl)-7-(tetrahydro-2H-pyran-4-yl)imidazo[5,1-f][1,2,4]triazin-4(3H)-one]
- IC50 (PDE9A2; [3]): < 1 µM
- PDE1A selectivity (versus PDE9A2) (PDE1A; [4]): 664
- PDE1B selectivity (versus PDE9A2) (PDE1B; [4]): 714

SMILES: CC1CN(Cc2ccc(F)cc2)CC1c1nn2c(-c3ccccc3)ncc2c(=O)[nH]1 (single isomer, unassigned; (+)) [(+)-2-((3,4-trans)-1-(4-fluorobenzyl)-4-methylpyrrolidin-3-yl)-7-phenylimidazo[5,1-f][1,2,4]triazin-4(3H)-one]
- IC50 (PDE9A2; read-out: Band (PDE9A2 IC50)): < 1 µM
- PDE1A selectivity (versus PDE9A2) (PDE1A; [1]): 3
- PDE1B selectivity (versus PDE9A2) (PDE1B; [2]): 7

SMILES: CC1CN(Cc2cc(Cl)ccc2F)CC1c1nn2c(C3CCOCC3)ncc2c(=O)[nH]1 (single isomer, unassigned; (+)) [(+)-2-((3,4-trans)-1-(5-chloro-2-fluorobenzyl)-4-methylpyrrolidin-3-yl)-7-(tetrahydro-2H-pyran-4-yl)imidazo[5,1-f][1,2,4]triazin-4(3H)-one]
- IC50 (PDE9A2; [5]): < 1 µM
- PDE1A selectivity (versus PDE9A2) (PDE1A; [6]): 15
- PDE1B selectivity (versus PDE9A2) (PDE1B; [7]): 16

SMILES: CC1CN(Cc2ncon2)CC1c1nn2c(C3CCOCC3)ncc2c(=O)[nH]1 (single isomer, unassigned; (+)) [(+)-2-((3,4-trans)-1-((1,2,4-oxadiazol-3-yl)methyl)-4-methylpyrrolidin-3-yl)-7-(tetrahydro-2H-pyran-4-yl)imidazo[5,1-f][1,2,4]triazin-4(3H)-one]
- IC50 (PDE9A2; read-out: Band (PDE9A2 IC50)): < 1 µM
- PDE1A selectivity (versus PDE9A2) (PDE1A; [8]): 35
- PDE1B selectivity (versus PDE9A2) (PDE1B; [8]): 63

SMILES: CC1CN(Cc2ncno2)CC1c1nn2c(C3CCOCC3)ncc2c(=O)[nH]1 (single isomer, unassigned; (+)) [(+)-2-((3,4-trans)-1-((1,2,4-oxadiazol-5-yl)methyl)-4-methylpyrrolidin-3-yl)-7-(tetrahydro-2H-pyran-4-yl)imidazo[5,1-f][1,2,4]triazin-4(3H)-one]
- IC50 (PDE9A2; read-out: Band (PDE9A2 IC50)): < 1 µM
- PDE1A selectivity (versus PDE9A2) (PDE1A; [8]): 650
- PDE1B selectivity (versus PDE9A2) (PDE1B; [8]): 1528

SMILES: Cc1cc(CN2CC(C)C(c3nn4c(C5CCOCC5)ncc4c(=O)[nH]3)C2)n(C)n1 (single isomer, unassigned; (+)) [(+)-2-((3,4-trans)-1-((1,3-dimethyl-1H-pyrazol-5-yl)methyl)-4-methylpyrrolidin-3-yl)-7-(tetrahydro-2H-pyran-4-yl)imidazo[5,1-f][1,2,4]triazin-4(3H)-one]
- IC50 (PDE9A2; [3]): < 1 µM
- PDE1A selectivity (versus PDE9A2) (PDE1A; [4]): 487
- PDE1B selectivity (versus PDE9A2) (PDE1B; [4]): 670

SMILES: CC1CN(Cc2nc3ccccc3[nH]2)CC1c1nn2c(C3CCC(F)(F)CC3)ncc2c(=O)[nH]1 (single isomer, unassigned; (+)) [(+)-2-((3,4-trans)-1-((1H-benzo[d]imidazol-2-yl)methyl)-4-methylpyrrolidin-3-yl)-7-(4,4-difluorocyclohexyl)imidazo[5,1-f][1,2,4]triazin-4(3H)-one]
- IC50 (PDE9A2; [9]): < 1 µM
- PDE1A selectivity (versus PDE9A2) (PDE1A; [10]): 90
- PDE1B selectivity (versus PDE9A2) (PDE1B; [11]): 250

SMILES: Cc1cc(F)ccc1-c1ncc2c(=O)[nH]c(C3CN(Cc4nc5ccccc5[nH]4)CC3C)nn12 (single isomer, unassigned; (+)) [(+)-2-((3,4-trans)-1-((1H-benzo[d]imidazol-2-yl)methyl)-4-methylpyrrolidin-3-yl)-7-(4-fluoro-2-methylphenyl)imidazo[5,1-f][1,2,4]triazin-4(3H)-one]
- IC50 (PDE9A2; [9]): < 1 µM
- PDE1A selectivity (versus PDE9A2) (PDE1A; [10]): 1438
- PDE1B selectivity (versus PDE9A2) (PDE1B; [11]): 2500

SMILES: Cc1ccc(F)cc1-c1ncc2c(=O)[nH]c(C3CN(Cc4nc5ccccc5[nH]4)CC3C)nn12 (single isomer, unassigned; (+)) [(+)-2-((3,4-trans)-1-((1H-benzo[d]imidazol-2-yl)methyl)-4-methylpyrrolidin-3-yl)-7-(5-fluoro-2-methylphenyl)imidazo[5,1-f][1,2,4]triazin-4(3H)-one]
- IC50 (PDE9A2; [9]): < 1 µM
- PDE1A selectivity (versus PDE9A2) (PDE1A; [10]): 89
- PDE1B selectivity (versus PDE9A2) (PDE1B; [11]): 130

SMILES: Cc1ccccc1-c1ncc2c(=O)[nH]c(C3CN(Cc4nc5ccccc5[nH]4)CC3C)nn12 (single isomer, unassigned; (+)) [(+)-2-((3,4-trans)-1-((1H-benzo[d]imidazol-2-yl)methyl)-4-methylpyrrolidin-3-yl)-7-(o-tolyl)imidazo[5,1-f][1,2,4]triazin-4(3H)-one]
- IC50 (PDE9A2; read-out: Band (PDE9A2 IC50)): < 1 µM
- PDE1A selectivity (versus PDE9A2) (PDE1A; [1]): 1740
- PDE1B selectivity (versus PDE9A2) (PDE1B; [2]): 2990

Other lines, results leading:

- IC50 (PDE9A2; [3]): < 1 µM
- PDE1A selectivity (versus PDE9A2) (PDE1A; [4]): 855
- PDE1B selectivity (versus PDE9A2) (PDE1B; [4]): 1920
SMILES: CCc1ncc(CN2CC(C)C(c3nn4c(C5CCOCC5)ncc4c(=O)[nH]3)C2)cn1 (single isomer, unassigned; (+)) [(+)-2-((3,4-trans)-1-((2-ethylpyrimidin-5-yl)methyl)-4-methylpyrrolidin-3-yl)-7-(tetrahydro-2H-pyran-4-yl)imidazo[5,1-f][1,2,4]triazin-4(3H)-one]

- IC50 (PDE9A2; Table 3, 4.0 μM cGMP substrate, 1 hour at R.T., read-out: Band (PDE9A2 IC50)): < 1 µM
- PDE1A selectivity (versus PDE9A2) (PDE1A; ratio of IC50 values, PDE1A versus PDE9A2, value greater than 1 = greater selectivity for PDE9A2): 317
- PDE1B selectivity (versus PDE9A2) (PDE1B; ratio of IC50 values, PDE1B versus PDE9A2, value greater than 1 = greater selectivity for PDE9A2): 607
SMILES: COc1cc(CN2CC(C)C(c3nn4c(C5CCOCC5)ncc4c(=O)[nH]3)C2)ccn1 (single isomer, unassigned; (+)) [(+)-2-((3,4-trans)-1-((2-methoxypyridin-4-yl)methyl)-4-methylpyrrolidin-3-yl)-7-(tetrahydro-2H-pyran-4-yl)imidazo[5,1-f][1,2,4]triazin-4(3H)-one]

- IC50 (PDE9A2; [5]): < 1 µM
- PDE1A selectivity (versus PDE9A2) (PDE1A; [6]): 1210
- PDE1B selectivity (versus PDE9A2) (PDE1B; [7]): 3650
SMILES: COc1ncc(CN2CC(C)C(c3nn4c(C5CCOCC5)ncc4c(=O)[nH]3)C2)cn1 (single isomer, unassigned; (+)) [(+)-2-((3,4-trans)-1-((2-methoxypyrimidin-5-yl)methyl)-4-methylpyrrolidin-3-yl)-7-(tetrahydro-2H-pyran-4-yl)imidazo[5,1-f][1,2,4]triazin-4(3H)-one]

- IC50 (PDE9A2; read-out: Band (PDE9A2 IC50)): < 1 µM
- PDE1A selectivity (versus PDE9A2) (PDE1A; [8]): 51
- PDE1B selectivity (versus PDE9A2) (PDE1B; [8]): 68
SMILES: CC1CN(CC2CCC(F)(F)CC2)CC1c1nn2c(C3CCOCC3)ncc2c(=O)[nH]1 (single isomer, unassigned; (+)) [(+)-2-((3,4-trans)-1-((4,4-difluorocyclohexyl)methyl)-4-methylpyrrolidin-3-yl)-7-(tetrahydro-2H-pyran-4-yl)imidazo[5,1-f][1,2,4]triazin-4(3H)-one]

- IC50 (PDE9A2; [12]): < 1 µM
- PDE1A selectivity (versus PDE9A2) (PDE1A; [13]): 947
- PDE1B selectivity (versus PDE9A2) (PDE1B; [13]): 767
SMILES: Cc1cc(C)nc(CN2CC(C)C(c3nn4c(C5CCOCC5)ncc4c(=O)[nH]3)C2)n1 (single isomer, unassigned; (+)) [(+)-2-((3,4-trans)-1-((4,6-dimethylpyrimidin-2-yl)methyl)-4-methylpyrrolidin-3-yl)-7-(tetrahydro-2H-pyran-4-yl)imidazo[5,1-f][1,2,4]triazin-4(3H)-one]

- IC50 (PDE9A2; [12]): < 1 µM
- PDE1A selectivity (versus PDE9A2) (PDE1A; [13]): 117
- PDE1B selectivity (versus PDE9A2) (PDE1B; [13]): 177
SMILES: CC1CN(Cc2nccc(N(C)C)n2)CC1c1nn2c(C3CCOCC3)ncc2c(=O)[nH]1 (single isomer, unassigned; (+)) [(+)-2-((3,4-trans)-1-((4-(dimethylamino)pyrimidin-2-yl)methyl)-4-methylpyrrolidin-3-yl)-7-(tetrahydro-2H-pyran-4-yl)imidazo[5,1-f][1,2,4]triazin-4(3H)-one]
